Tested on: GluR6 glutamate receptor
Assay: Stability in aqueous solution by whole-cell recording, cells used as glutamate detector
Assay type: cell-based
Settings: 2 mM solution, 24 h in the dark at −20° C., pH 7.4
From the text: In whole-cell current recording experiments with DECM-caged glutamate, HEK 293 cells stably transfected with cDNA encoding the GluR6 were used. In whole-cell current recording experiments with DECM-caged glycine, HEK 293 cells were transiently transfected with the cDNA of the α1-subunit of the human glycine receptor by using the Polyfect™ transfection reagent (Qiagen GmbH, D-40724, Hilden, Germany). The cDNA of the α1-subunit was kindly provided by Professor H. Betz (Max-Plank-Institute for brain Research, Frankfurt, Germany). The cells were co-transfected with cDNA encoding the green fluorescent protein (pGreen Lantern plasmid, Life Technologies, Gaitherberg, Md.) to detect transfected cells (Chalfie et al., “Green Fluorescent Protein as a Marker for Gene Expression,” Science 263:802-805 (1994), which is hereby incorporated by reference in its entirety).
The cells were used for electrophysiological experiments between 24 and 72 h after each passage. Whole-cell currents evoked by glutamate or glycine (100 μM) were recorded using the whole-cell configuration (Hamill et al., “Improved Patch-Clamp Techniques for High-Resolution Current Recording From Cells and Cell-Free Membrane Patches,” Pfluegers Arch 391:85-100 (1981), which is hereby incorporated by reference in its entirety) at room temperature, −60 mV, and pH 7.4. […]

CCN(CC)c1ccc2c(COC(=O)CCC(N)C(=O)O)cc(=O)oc2c1 (stereo not shown) [DECM-caged glutamate, (7-N,N-Diethylaminocoumarin-4-yl)-methyl-glutamate-trifluoroacetate]
free glutamate in solution of caged compound: no free glutamate was detected

Source: US8053585B2, “Protecting group for carboxylic acids that can be photolyzed by visible light” (Cornell Research Foundation, Inc., priority 2006, dated 2011)
